Where “and” joins values, the source holds several entries; their conditions need not be identical. Equal entries are not always repeated. ± gives the expanded uncertainty stated by the source.
Assay: cn = amount concentration of the nth substance listed, in mol/dm3
Settings: 101 kPa, Liquid, c1 = 2; for speed of sound: Linear variable-path acoustic interferometer; for mass density: Pycnometric method

SMILES	speed of sound (298.15 K) [m/s]	mass density (298.15 K) [kg/m3]	speed of sound (303.15 K) [m/s]	mass density (303.15 K) [kg/m3]	speed of sound (308.15 K)	mass density (308.15 K) [kg/m3]	speed of sound (313.15 K) [m/s]	mass density (313.15 K) [kg/m3]	speed of sound (318.15 K)	mass density (318.15 K) [kg/m3]	speed of sound (323.15 K)	mass density (323.15 K) [kg/m3]
[Cl-].[K+] [potassium chloride] + O	1595.2 ± 1.8	1089.1 ± 0.4	1605.9 ± 1.8	1087.5 ± 0.4	1610.2 ± 1.8 m/s	1085.6 ± 0.4	1616.4 ± 1.8	1083.4 ± 0.4	1621.4 ± 1.8 m/s	1080.9 ± 0.4	1626.5 ± 1.8 m/s	1078.3 ± 0.5
O=[N+]([O-])[O-].[K+] [potassium nitrate] + O	1562 ± 1.7	1122.9 ± 0.4	1569.4 ± 1.8	1120.6 ± 0.4	1575.8 ± 1.8 m/s and 1575 ± 1.8 m/s	1118 ± 0.4	1580 ± 1.8	1115 ± 0.4	1584.6 ± 1.8 m/s and 1584.5 ± 1.8 m/s	1111.8 ± 0.5	1588.9 ± 1.8 m/s and 1588.8 ± 1.8 m/s	1108.2 ± 0.5
